In patent US5328913A, “Minoxidil analogs as inhibitors of cell proliferation and lysyl hydroxylase” (priority 1992, dated 1994):
“Also recorded” adds a separate entry of the source.

Assays:
Assay type in all cases: cell-based
lysyl hydroxylase [1] = assay: Lysyl hydroxylase activity in extracts of treated human skin fibroblasts (Example 1, tritium-release assay); details: for Lysyl hydroxylase activity (%) / effect on lysyl hydroxylase activity (in words): 72 h; for Lysyl hydroxylase activity (%): 1% ethanol; for increase of the level of lysyl hydroxylase activity: 72 h (Table I text); for effect on lysyl hydroxylase activity (in words): cultured fibroblasts, Example 1
Protocol: Cultures of human skin fibroblasts grown to confluence were incubated for 72 h in medium supplemented with 1% ethanol containing various concentrations of minoxidil or deoxyminoxidil as indicated. Cells were then harvested, and the enzyme activities in extracts of these cells were measured by tritium-release assays (Murad and Pinnell, J. Biol. Chem. 262:11,973 (1987)). The results are expressed as percentages of zero-concentration values.
Cultures of human skin fibroblasts grown to confluence were incubated for 72 h in medium supplemented with 1% ethanol containing various concentrations of minoxidil or with 1% acetone containing various concentrations of minoxidil sulfate, as indicated. Cells were then harvested, and the enzyme activities in extracts of these cells were measured by tritium release assays (Murad and Pinnell, J. Biol. Chem. 262:11,973 (1987)). The results are expressed as percentages of zero-concentration values.
Skin fibroblast cultures derived from an apparently normal child (GM05659) were obtained from the Institute for Medical Research, Camden, N.J. The cells were subcultured by trypsinization and used before 25 population doublings. Typically, 4×10^5 cells were seeded onto 100-mm (diameter) plastic petri dishes and allowed to grow in 10 ml of Dulbecco's modified Eagle's minimum essential medium containing 5.6 mM glucose, buffered in pH 7.4 with 24 mM sodium biocarbonate/25 mM Hepes and supplemented with 20% (v/v) calf serum which had been inactivated for 30 min at 56° C. The cells were incubated at 37° C. in a humidified atmosphere of 5% CO2 plus 95% air.
After a week, the medium was replaced with medium supplemented with 0.5% heat-inactivated diaylzed calf serum, and the incubation was continued for 72 h in the presence of minoxidil or one of its structural analogs. The compounds were dissolved in 95% ethanol, except minoxidil sulfate which was dissolved in acetone; the final solvent concentration was 1% (v/v). During the last 3 h of incubation, cells received 100 μM Na L-ascorbate to ensure complete hydroxylation of the polypeptide precursors of precollagen (Murad et al, J. Invest. Dermatol. 75:404 (1980)).
The medium was then removed and the cells were washed twice with a solution containing 0.14 M NaCl, 5 mM KCl, 0.3 mM Na2 PO4, and 0.4 mM KH2 PO4, adjusted to pH 7.4. The cells were detached from the plates with a solution containing 0.05% trypsin, 0.54 mM EDTA, 5.5mM glucose, 6.90mM NaHCO3, […], and 5 mM KCl. The trypsinization was terminated with 2 vol of 20% serum-supplemented medium, and the cell number in an aliquot of the suspension was determined using a Coulter counter.
The detached cells were collected by centrifugation at 500g for 6 min at 4° C. washed twice by suspending in phosphate-buffered NaCl/KCl as above, and then centrifuged. The cell pellet was suspended in a medium (1 ml/5×10^6 cells) containing 0.2 M NaCl, 0.1 M glycine, 50 μM dithiothreitol, 20 mM Tris-HCl, buffer (pH 7.5), 0.1% Triton X-100, and 0.01% soybean trypsin inhibitor. The suspension was sonicated for 30 s using a Branson sonifier cell disrupter. The lysate was centrifuged at 27,000g for 1 h at 4° C., and the resulting supernatant was used for prolyl and lysyl hydroxylase assays (Murad and Pinnell, J. Biol. Chem. 262:11, 973 (1987)). The enzyme activities are based on a unit of soluble cell protein.
The protein content of cell extracts was determined by a dye-binding technique using Bio-Rad reagent and protein standard (Bradford, Anal. Biochem. 72:248 (1976)).
Note: Cultures of human skin fibroblasts grown to confluence were
incubated for 72 h in medium supplemented with 1% ethanol containing 1 mM
of the indicated compounds. Cells were then harvested, and the enzyme
activity in extracts of these cells was measured by a tritiumrelease
incubated for 72 h in medium supplemented with 1% ethanol containing 1 nM

lysyl hydroxylase [2] = assay: as above
prolyl hydroxylase = assay: Prolyl hydroxylase activity in extracts of treated human skin fibroblasts (Example 2); details: 72 hr; N,N-diethyl analog up to 2 mM
Protocol: (§1) Cells were treated for 72 hr with minoxidil or its triazine analog at the indicated concentrations. The enzyme activities in extracts of treated cells were measured by tritium release assays (Murad and Pinnell, J. Biol. Chem. 262:11,973 (1987)) and are expressed as a percentage of zero-concentration values. PH, prolyl hydroxylase; LH, lysyl hydroxylase.
Cultures of human skin fibroblast (1.5×10^6 cells) were seeded onto 100-mm plates and incubated at 37° in Dulbecco's modified Eagle's medium supplemented with 20% calf serum. After 24 hr, the medium was replaced with medium supplemented with 0.5% heat-inactivated dialyzed calf serum. […] Cells treated with HCl only served as control. […]
Lysyl hydroxylase activity in extracts of treated cells was measured with an underhydroxylated procollagen substrate (Murad et al, J. Biol. Chem. 262:11,973 (1987)), which was prepared by labeling cultures of human skin fibroblasts with L-[4,5-^3 H]lysine in the presence of an iron chelator α,α'-dipyridyl (Murad and Pinnell, Conn. Tiss. Res. 13:181 (1985)). The amount of tritium released was quantitated as ^3 HO after vacuum distillation . Prolyl hydroxylase activity was similarly measured with an underhydroxylated procollagen substrate containing L-[4-^3 H]proline (Murad and Pinnell, J. Biol. Chem. 262:11973 (1987); Murad and Pinnell, Conn. Tiss. Res. 13:181 (1985)). […]

lysyl hydroxylase [3] = assay: Lysyl hydroxylase activity in extracts of treated human skin fibroblasts (Example 2, pyridine, triazine and N-alkyl analogs); details: for IC50: 72 hr (FIG. 4, FIG. 5), read-out: concentration giving 50% inhibition (lysyl hydroxylase)
Protocol: as §1
Cells were treated for 72 hr with various concentrations of minoxidil or its N-alkyl analogs as indicated. The enzyme activity in extracts of treated cells was measured by tritium release assays (Murad and Pinnell, J. Biol. Chem. 262:11,973 (1987)) and is expressed as a percentage of zero-concentration value. The minoxidil curve is reproduced from FIG. 4.
Cultures of human skin fibroblast (1.5×10^6 cells) were seeded onto 100-mm plates and incubated at 37° in Dulbecco's modified Eagle's medium supplemented with 20% calf serum. After 24 hr, the medium was replaced with medium supplemented with 0.5% heat-inactivated dialyzed calf serum. The incubation was continued for an additional 72 hr in the presence of 0.1-2 μM minoxidil analogs dissolved in 0.12N HCl; the final concentration of HCl was 0.0012N or 0.0024N. Cells treated with HCl only served as control. During the last 3 hr of incubation, cells received […] ascorbic acid to ensure complete hydroxylation of the polypeptide precursors of procollagen (Murad et al, J. Invest. Dermatol. 75:404 (1980)). At the end of the incubation period, cells were harvested by trypsinization and disrupted by sonication in a buffered medium (Murad et al, J. Biol. Chem. 262:11,973 (1987)).
Lysyl hydroxylase activity in extracts of treated cells was measured with an underhydroxylated procollagen substrate (Murad et al, J. Biol. Chem. 262:11,973 (1987)), which was prepared by labeling cultures of human skin fibroblasts with L-[4,5-^3 H]lysine in the presence of an iron chelator α,α'-dipyridyl (Murad and Pinnell, Conn. Tiss. Res. 13:181 (1985)). The amount of tritium released was quantitated as ^3 HO after vacuum distillation . Prolyl hydroxylase activity was similarly measured with an underhydroxylated procollagen substrate containing L-[4-^3 H]proline (Murad and Pinnell, J. Biol. Chem. 262:11973 (1987); Murad and Pinnell, Conn. Tiss. Res. 13:181 (1985)). The enzyme activities are based on a unit of soluble cell protein. The protein content of cell extracts was determined by a dye-binding techniques using Bio-Rad reagents (Bradford, Anal. Biochem. 72:248 (1976)).
Cells were treated for 72 hr with 1 mM minoxidil or its
structural analogs as indicated. The enzyme activity in extracts
of treated cells was measured by a tritium-release assay and is
expressed as a percentage of HCl-treated control.

[4] = 1 mM, % of solvent-treated controls (Table I)
[5] = 1 nM, % of ethanol-treated controls (Table II)

[O-][n+]1cccc(O)c1 [3-Hydroxypyridine-N-oxide]
Lysyl hydroxylase activity (%) (lysyl hydroxylase [1]; [4]): 99%

CC1(C)CC(O)CC(C)(C)N1[O] [4-Hydroxy-2,2,6,6-tetramethylpiperidine-N-oxyl]
Lysyl hydroxylase activity (%) (lysyl hydroxylase [1]; [4]): 130%
increase of the level of lysyl hydroxylase activity (lysyl hydroxylase [1]): 30-40%

[O-][n+]1ccc(-c2ccccc2)cc1 [4-Phenylpyridine-N-oxide]
Lysyl hydroxylase activity (%) (lysyl hydroxylase [2]; 0.3 mM, dissolved in ethanol, final concentration 0.3%, 72 h, % of solvent-treated controls (Table I)): 99%

O=C(O)c1cc[n+]([O-])cc1 [Isonicotinic acid N-oxide]
Lysyl hydroxylase activity (%) (lysyl hydroxylase [2]; 1 mM, dissolved in aqueous medium, 72 h, % of solvent-treated controls (Table I)): 90%

CCN(CC)c1cc(N)[n+]([O-])c(N)n1 [Compound III (Table III)]
effect on prolyl hydroxylase activity (in words) (prolyl hydroxylase): no significant effect on prolyl hydroxylase activity
IC50 (lysyl hydroxylase [3]): ~1000 µM

Cc1cc(N2CCCC2)nc(N)[n+]1[O-] [Compound VII (Table II)]
Lysyl hydroxylase activity (%) (lysyl hydroxylase [1]; [5]): 88%
effect on lysyl hydroxylase activity (in words) (lysyl hydroxylase [1]): inactive

Nc1[nH]c(=O)c2nc[nH]c2[n+]1[O-] [Guanine 3-N-oxide]
Lysyl hydroxylase activity (%) (lysyl hydroxylase [2]; 1 mM, dissolved in NaOH, final concentration 0.001 N, 72 h, % of solvent-treated controls (Table I)): 132%
increase of the level of lysyl hydroxylase activity (lysyl hydroxylase [1]): 30-40%

Cc1cc(N2CCOCC2)nc(N)[n+]1[O-] [Compound VIII (Table II)]
Lysyl hydroxylase activity (%) (lysyl hydroxylase [1]; [5]): 91%
effect on lysyl hydroxylase activity (in words) (lysyl hydroxylase [1]): inactive

CN1CCN(c2cc(N)[n+]([O-])c(N)n2)CC1 [Compound IX (Table II)]
Lysyl hydroxylase activity (%) (lysyl hydroxylase [2]; 0.1 mM, dissolved in HCl, final concentration 0.0012 N, 72 h (Table II footnote a)): 109%
effect on lysyl hydroxylase activity (in words) (lysyl hydroxylase [1]): inactive

Cc1c([N+](=O)[O-])c(N2CCCCC2)nc(N)[n+]1[O-] [Compound VI (Table II)]
Lysyl hydroxylase activity (%) (lysyl hydroxylase [1]; [5]): 34%
effect on lysyl hydroxylase activity (in words) (lysyl hydroxylase [1]): no significant effect on its inhibitory activity

CC1(C)CCC=[N+]1[O-] [5,5-Dimethyl-1-pyrroline-N-oxide]
Lysyl hydroxylase activity (%) (lysyl hydroxylase [1]; [4]): 103%

Nc1nc(N2CCCCC2)nc(N)[n+]1[O-] [Compound II (Table III)]
effect on prolyl hydroxylase activity (in words) (prolyl hydroxylase): failure to decrease the activity of prolyl hydroxylase
IC50 (lysyl hydroxylase [3]): ~800 µM
effect on lysyl hydroxylase activity (in words) (lysyl hydroxylase [3]; 72 hr, Example 2, listed as triazine analog): no significant effect up to 0.2 mM; also recorded: less potent than minoxidil
